Results on three molecules are retold here after patent publication US11124526B2, “Crystalline beta-lactamase inhibitor” (Allecra Therapeutics SAS, priority 2013, dated 2021).

Values after ≈ are worked out from the molar mass of the structure shown.

Assay type in all cases: physicochemical
Series [1] can be described thus: Solubility assessment of Form C in saline physiological solution (HPLC). The protocol: The Form C solubility was calculated by HPLC employing a dedicated walk-up method. The product obtained by the scaled up procedure described in Example 13 was used to perform the experiments.
1.9 g of the product was suspended in 1 ml of commercial physiologic solution (0.9% of NaCl) at ambient temperature (˜20 ° C.). The suspension resulted slightly opaque and quite viscous after 30 min. After this time the suspension was sampled and the sample injected in HPLC to determine its concentration. After 2 hrs stirring the solid residue was completely dissolved. The addition of more solid was not performed to avoid the gelatinisation of the viscous solution. A sample was taken and injected in HPLC to determine its concentration. The solution was stirred other 3 hrs and sampled again. The 5 hrs sample was also injected in HPLC to determine its concentration.

Series [2] is described as follows: Stability tests of Form F stored at controlled temperature and RH.
The nature of series [3]: Dynamic Vapor Sorption (DVS) of Form F. As to conditions: 25° C. The protocol: Kinetic moisture sorption measurements were performed at 25° C. and at relative humidity (RH % target as follows: • From 40% RH to 90% RH • Form 90% RH to 0% RH • From 0% RH to 90% RH • From 90% RH to 0% RH The kinetic moisture sorption measurement was performed at 25° C. and in a RH % range described in the following: • From 40% RH to 90% RH • Form 90% RH to 0% RH • From 0% RH to 90% RH • From 90% RH to 0% RH The experiment is performed on 10-15 mg of sample and the equilibrium criterion is set as dm/dt<0.002% w/w in 10 min with a maximum step time of 240 min.

Series [4] in a line: Hygroscopicity of Form F (% weight change at 25° C. and 80% RH). The protocol: The hygroscopicity was calculated using the following equation: % Weight Change=[(W2−W1)W1]*100 wherein, • W1 is weight of sample at the start of the experiment; and • W2 is weight of sample at 25° C. and 80% RH in the first absorption cycle.
Series [5] is described as follows: Inventors' findings on hygroscopicity and stability of amorphous versus crystalline compound of formula (I).
Series [6] in a line: Solubility of amorphous compound of formula (I) in selected solvents (slurry stirred 4 hours, mother liquor by HPLC). As to conditions: thermodynamic from solid. The protocol: Solubility values of solvents were calculated with respect to the HPLC response factor, set out in FIG. 12.
HPLC response factor was calculated for the amorphous compound of formula (I) using samples dissolved in acetonitrile/water 9/1 with the following method: • Column: ZORBAX Eclipse XDB-C18 (150×4.6 mm, 5 μm) • Temperature: 25° C. • Mobile phase: A: 0.05M Sodium ortophosphate/water, B: Acetonitrile • Gradient: from 5% of B to 95% of B in 10 min • Detector: UV λ=220 nm
Slurries of the amorphous compound of formula (I) in the selected solvents were prepared and stirred at 20° C. and 40° C. for 4 hours. • Samples of each slurry were filtered and the mother liquors injected in HPLC. • The solid residual were isolated and analyzed by XRPD. • The results are summarized in the following Table 4.

Setting [7] is: 25° C. and 80% RH, first absorption cycle.

Regarding `C[n+]1ccn(C[C@@]2(C)[C@H](C(=O)[O-])N3C(=O)C[C@H]3S2(=O)=O)n1` [Form C, (2S,3S,5R)-3-methyl-3-((3-methyl-1H-1,2,3-triazol-3-ium-1-yl)methyl)-7-oxo-4-thia-1-azabicyclo[3.2.0]heptane-2-carboxylate 4,4-dioxide], in series [1] (0.9% NaCl, ambient temperature, up to 5 hrs), the “Formation of impurities in physiologic solution (HPLC traces)” value is “did not show the formation of significant impurities”. Besides, the solubility at 30 min in series [1] (physiologic solution (0.9% NaCl), saline or isotonic, thermodynamic from solid, physiologic solution (0.9% of NaCl), ~20 ° C., timepoint 30 mins, read-out: Solubility (mg/ml) at ambient temperature) was determined as 772 mg/mL (≈ 2460 mM). Moreover, the solubility at 2 h in series [1] (physiologic solution (0.9% NaCl), saline or isotonic, thermodynamic from solid, physiologic solution (0.9% of NaCl), ~20 ° C., timepoint 2 hours, solid completely dissolved, read-out: Solubility (mg/ml) at ambient temperature) was above 883 mg/mL. In series [1] (physiologic solution (0.9% NaCl), saline or isotonic, thermodynamic from solid, physiologic solution (0.9% of NaCl), ~20 ° C., timepoint 5 hours, read-out: Solubility (mg/ml) at ambient temperature), the solubility at 5 h is above 812 mg/mL.

For `C[n+]1ccn(C[C@@]2(C)[C@H](C(=O)[O-])N3C(=O)C[C@H]3S2(=O)=O)n1` [Form F, (2S,3S,5R)-3-methyl-3-((3-methyl-1H-1,2,3-triazol-3-ium-1-yl)methyl)-7-oxo-4-thia-1-azabicyclo[3.2.0]heptane-2-carboxylate 4,4-dioxide], the “Stability on storage (appearance)” value in series [2] (after a day at 25° C. and 60% RH) is reported as “becomes a viscous liquid”. The “Stability on storage (appearance)” value in series [2] (after a day at 60° C. and 75% RH) is listed as “becomes a viscous liquid”. Besides, the “Relative humidity up to which the form is stable (DVS)” value in series [3] is “approximately 50 % RH”. In addition, in series [3] (at 90% RH), the “Weight increase (DVS)” value is recorded as “greater than 50 % w/w”. Besides, the “Water sorption behaviour after the weight increase at 90% RH (DVS)” value in series [3] (following cycles) is “releases and takes water reversibly”. In series [4] (setting [7]), the Hygroscopicity classification result is listed as “very hygroscopic” and the “Mass increase (% Weight Change)” value is on record as “greater than 15%”. Besides, the “Appearance at high humidity” value in series [4] (high humidity) was “becomes a viscous liquid”.

`C[n+]1ccn(C[C@@]2(C)[C@H](C(=O)[O-])N3C(=O)C[C@H]3S2(=O)=O)n1` [amorphous compound of formula (I), (2S,3S,5R)-3-methyl-3-((3-methyl-1H-1,2,3-triazol-3-ium-1-yl)methyl)-7-oxo-4-thia-1-azabicyclo[3.2.0]heptane-2-carboxylate 4,4-dioxide]: the “Hygroscopicity (statement in words)” value in series [5] is reported as “hygroscopic”. In series [5] (stored at room temperature), the Stability when stored entry is “limited stability”. Moreover, the solubility at 4 h in series [6] (organic solvent or mixture, 1-butanol, 20° C.) is 97 mg/mL; in series [6] (organic solvent or mixture, 1-butanol, 40° C.), 167 mg/mL; in series [6] (organic solvent or mixture, 1-propanol, 20° C.), 295 mg/mL; in series [6] (organic solvent or mixture, 1-propanol, 40° C.), above 400 mg/mL; in series [6] (organic solvent or mixture, 2-propanol, 20° C.), 23 mg/mL; in series [6] (organic solvent or mixture, 2-propanol, 40° C.) it was 28 mg/mL. The solubility at 4 h in series [6] (organic solvent or mixture, Acetonitrile, 20° C.) is 6 mg/mL; in series [6] (organic solvent or mixture, Dimethylsulfoxide, 20° C.) it was above 400 mg/mL; in series [6] (organic solvent or mixture, Dimethylsulfoxide, 40° C.) it was above 400 mg/mL; in series [6] (organic solvent or mixture, Ethanol, 20° C.), 420 mg/mL; in series [6] (organic solvent or mixture, Ethanol, 40° C.), above 420 mg/mL; in series [6] (organic solvent or mixture, Ethanol/acetone 20%, 20° C.), above 300 mg/mL. The solubility at 4 h was above 300 mg/mL in series [6] (organic solvent or mixture, Ethanol/acetone 40%, 20° C.); 52 mg/mL in series [6] (organic solvent or mixture, Ethanol/methyl tert-butyl ether 20%, 20° C.); 16 mg/mL in series [6] (organic solvent or mixture, Ethanol/methyl tert-butyl ether 40%, 20° C.); above 400 mg/mL in series [6] (organic solvent or mixture, Methanol, 20° C.); above 400 mg/mL in series [6] (organic solvent or mixture, Methanol, 40° C.); above 400 mg/mL in series [6] (Water, 20° C.). In series [6] (Water, 40° C.), this molecule returned a solubility at 4 h above 400 mg/mL.
